Assay results as given in EP3575287A1, “INHIBITORS OF N-ACYLPHOSPHATIDYLETHANOLAMINE PHOSPHOLIPASE D (NAPE-PLD)” (Universiteit Leiden, priority 2018, dated 2019).

Target: T1, human NAPE-PLD (Homo sapiens, UniProt Q6IQ20)
T1 construct: Full length human cDNA NAPE-PLD was obtained from Natsuo Ueda; made in house; host or cells: HEK293T cells, transient transfection (pcDNA3.1); membrane fraction used
Experiment: In vitro NAPE-PLD activity assay
Format: biochemical
Conditions: membrane protein fraction of HEK293T cells overexpressing human NAPE-PLD; substrate PED6 1 µM; 30 minutes preincubation at 37 °C
Experimental: Full length human cDNA NAPE-PLD was obtained from Natsuo Ueda^1 and cloned into mammalian expression vector pcDNA3.1, containing a C-terminal Flag-tag and genes for ampicillin and neomycin resistance. All plasmids were grown in XL-10 Z-competent cells and prepped (Maxi Prep, Qiagen). Sequence analysis for the confirmation of the sequences was performed at the Leiden Genome Technology Centre.
HEK293T were cultured at 37 °C and 7% CO2 in DMEM (Sigma Aldrich, D6546) with glutamax, penicillin (100 µg/ml), streptomycin (100 µg/ml) and 10% New Born Calf Serum iron supplemented (Hyclone SH30072.03). Cells were passaged twice a week to appropriate confluence.
24 hours before transfection 10^7 cells are seeded on a 15 cm dish. Two hours before transfection medium is refreshed, low volume. Transfection is performed with PEI in a ratio of 3:1 with human NAPE-PLD or Mock pcDNA3.1 Neo, 20 µg per dish. Medium is refreshed after 24 hours and cells are harvested after 72 hours.
Cell pellets are re-suspended in lysis buffer: 20 mM Hepes, 2 mM DTT, 0.25 M sucrose, 1 mM MgCl2, 2.5 U/ml benzonase and incubated 30 minutes on ice. The cytosolic fraction (supernatant) is separated from the membranes by ultra-centrifugation (32000 rpm for 30 minutes 100,000g). The pellet is resuspended in storage buffer: 20 mM Hepes, 2 mM DTT (membrane fraction). All samples are stored at -80°C. Enzyme concentrations are determined using a Bradford assay.
The NAPE-PLD activity assay is based on a previously reported method with small alterations.^2 The membrane protein fraction from transient overexpression of human NAPE-PLD in HEK293T cells was diluted to 0.4 mg/ml in assay buffer: 50 mM Tris-HCl (pH 7.5), 0.02% Triton X-100, 150 mM NaCl. The substrate PED6 (Invitrogen) 1 mM stock was consecutively diluted in DMSO (10x) and in assay buffer (10x) to make a 10 µM working solution. […] The assay is performed in a dark Greiner 96 wells plate, end volume 100 µl. The compound or DMSO is incubated with membrane protein lysate (final concentration 0.04 mg/ml) for 30 minutes at 37 °C. […] Mock lysate with DMSO is used for background substraction. IC50 curves are generated used Graphpad Prism v6.

T1 sequence (Q6IQ20 whole entry): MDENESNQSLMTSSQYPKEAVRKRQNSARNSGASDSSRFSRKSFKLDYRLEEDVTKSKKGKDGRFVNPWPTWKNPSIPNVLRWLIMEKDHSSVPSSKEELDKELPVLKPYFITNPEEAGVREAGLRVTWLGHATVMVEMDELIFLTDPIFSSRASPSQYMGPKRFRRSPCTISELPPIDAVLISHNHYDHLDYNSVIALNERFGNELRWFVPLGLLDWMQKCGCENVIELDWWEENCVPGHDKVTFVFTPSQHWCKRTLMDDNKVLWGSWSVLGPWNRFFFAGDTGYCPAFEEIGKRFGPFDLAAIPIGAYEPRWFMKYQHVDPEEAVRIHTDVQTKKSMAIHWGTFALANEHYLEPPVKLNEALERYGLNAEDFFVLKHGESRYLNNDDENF

| IC50 [nM] | Structure (SMILES) |
| --- | --- |
| 282 | CC(C)N(CCc1ccccc1)c1nc(C(=O)NCC2CC2)cc(N2CCOCC2)n1 [Example 50, N-(cyclopropylmethyl)-2-(isopropyl(phenethyl)amino)-6-morpholinopyrimidine-4-carboxamide] |
| 1820 | CCCNC(=O)c1cc(N2CCOCC2)nc(N(C)CCc2ccccc2)n1 [Example 14, N-propyl-2-(methyl (phenethyl)amino)-6-morpholino-pyrimidine-4-carboxamide] |
| 646 | CCN(CCc1ccccc1)c1nc(C(=O)NCC2CC2)cc(N2CCOCC2)n1 [Example 72, N-(cyclopropylmethyl)-2-(ethyl(phenethyl)amino)-6-morpholinopyrimidine-4-carboxamide] |
| 10000 | CN(CCCCc1ccccc1)c1nc(C(=O)NCC2CC2)cc(N2CCOCC2)n1 [Example 60, N-(cyclopropylmethyl)-2-(methyl(4-phenylbutyl)amino)-6-morpholinopyrimidine-4-carboxamide] |
| 3470 | CN(CCc1cccc(Oc2ccccc2)c1)c1nc(C(=O)NCC2CC2)cc(N2CCOCC2)n1 [Example 61, N-(cyclopropylmethyl)-2-(methyl(3-phenoxyphenethyl)amino)-6-morpholinopyrimidine-4-carboxamide] |
| 479 | C#CCNC(=O)c1cc(N2CC[C@H](O)C2)nc(N2CCN(Cc3ccc(C4(C(F)(F)F)N=N4)cc3)CC2)n1 [Example 44, (S)-6-(3-hydroxypyrrolidin-1-yl)-N-(prop-2-yn-1-yl)-2-(4-(4-(3-(trifluoromethyl)-3H-diazirin-3-yl)benzyl)piperazin-1-yl)pyrimidine-4-carboxamide] |
| 501 | CCN(CC)c1cc(C(=O)NCC2CC2)nc(N(C)CCc2ccccc2)n1 [Example 20, N-(cyclopropylmethyl)-6-(diethylamino)-2-(methyl(phenethyl)amino)pyrimidine-4-carboxamide] |
| 1000 | O=C(NCC1CC1)c1cc(N2CCOCC2)nc(N2CCN(Cc3ccccc3)C(c3ccccc3)C2)n1 (stereo not shown) [Example 35, 2-(4-benzyl-3-phenylpiperazin-1-yl)-N-(cyclopropylmethyl)-6-morpholinopyrimidine-4-carboxamide] |
| 1100 | CN(Cc1ccccc1)c1cc(C(=O)NCC2CC2)nc(N(C)CCc2ccccc2)n1 [Example 28, N-(cyclopropylmethyl)-2-(methyl(phenethyl)amino)-6-(benzyl(methyl)amino)pyrimidine-4-carboxamide] |
| 1120 | O=C(NCC1CC1)c1cc(N2CCOCC2)nc(N(CCc2ccccc2)Cc2ccccc2)n1 [Example 65, 2-(benzyl(phenethyl)amino)-N-(cyclopropylmethyl)-6-morpholinopyrimidine-4-carboxamide] |
| 1820 | Cc1ccc(CCN(C)c2nc(C(=O)NCC3CC3)cc(N3CCOCC3)n2)cc1 [Example 69, N-(cyclopropylmethyl)-2-(methyl(4-methylphenethyl)amino)-6-morpholinopyrimidine-4-carboxamide] |
| 302 | CN(CCc1ccccc1)c1nc(C(=O)NCC2CC2)cc(N2CC[C@@H](O)C2)n1 [Example 38, (R)-N-(cyclopropylmethyl)-6-(3-hydroxypyrrolidin-1-yl)-2-(methyl(phenethyl)amino)pyrimidine-4-carboxamide] |
| 6760 | CCCCNC(=O)c1cc(N2CCOCC2)nc(N(C)CCc2ccccc2)n1 [Example 9, N-butyl-2-(methyl (phenethyl)amino)-6-morpholinopyrimidine-4-carboxamide] |
| 2450 | CN(CCc1cccc(Cl)c1)c1nc(C(=O)NCC2CC2)cc(N2CCOCC2)n1 [Example 66, 2-((3-chlorophenethyl)(methyl)amino)-N-(cyclopropylmethyl)-6-morpholinopyrimidine-4-carboxamide] |
| 1230 | O=C(NCC1CC1)c1cc(N2CCOCC2)nc(N2CCOC(c3ccccc3)C2)n1 (stereo not shown) [Example 37, N-(cyclopropylmethyl)-6-morpholino-2-(2-phenylmorpholino)pyrimidine-4-carboxamide] |
| 1660 | CN(CCc1ccccc1)c1nc(C(=O)NCC2CC2)cc(N2CC3(COC3)C2)n1 [Example 26, N-(cyclopropylmethyl)-2-(methyl(phenethyl)amino)-6-(2-oxa-6-azaspiro[3.3]heptan-6-yl)pyrimidine-4-carboxamide] |

| IC50 [nM] | Structure (SMILES) |
| --- | --- |
| 224 | CN(CCc1ccccc1)c1nc(C(=O)NCC2CC2)cc(N2CCCC2)n1 [Example 17, N-(cyclopropylmethyl)-2-(methyl(phenethyl)amino)-6-(pyrrolidin-1-yl)pyrimidine-4-carboxamide] |
| 6170 | CN(CCc1ccc(C(F)(F)F)cc1)c1nc(C(=O)NCC2CC2)cc(N2CCOCC2)n1 [Example 56, N-(cyclopropylmethyl)-2-(methyl(4-(trifluoromethyl)phenethyl)amino)-6-morpholino-pyrimidine-4-carboxamide] |
| 1070 | CN(CCc1cccs1)c1nc(C(=O)NCC2CC2)cc(N2CCOCC2)n1 [Example 22, N-(cyclopropylmethyl)-2-(methyl(2-(thiophen-2-yl)ethyl)amino)-6-morpholinopyrimidine-4-carboxamide] |
| 2570 | COc1ccc(CC2CCCCN2c2nc(C(=O)NCC3CC3)cc(N3CCOCC3)n2)cc1 (stereo not shown) [Example 73, N-(cyclopropylmethyl)-2-(2-(4-methoxybenzyl)piperidin-1-yl)-6-morpholinopyrimidine-4-carboxamide] |
| 234 | CN(CCc1ccccc1)c1nc(C(=O)NCC2CC2)cc(N2CC[C@H](O)C2)n1 [Example 39, (S)-N-(cyclopropylmethyl)-6-(3-hydroxypyrrolidin-1-yl)-2-(methyl(phenethyl)amino)pyrimidine-4-carboxamide] |
| 224 | CN(CCc1ccccc1)c1nc(C(=O)NCC2CC2)cc(N2CCC(O)C2)n1 (stereo not shown) [Example 32, N-(cyclopropylmethyl)-6-(3-hydroxypyrrolidin-1-yl)-2-(methyl(phenethyl)amino)pyrimidine-4-carboxamide] |
| 8910 | CN(CCc1ccccc1)c1nc(C(=O)NCC2CC2)cc(N2CCC(F)(F)CC2)n1 [Example 2, N-(cyclopropylmethyl)-6-(4,4-difluoropiperidin-1-yl)-2-(methyl(phenethyl)amino)pyrimidine-4-carboxamide] |
| 380 | O=C(NCC1CC1)c1cc(N2CCOCC2)nc(N2CCCC2Cc2ccccc2)n1 (stereo not shown) [Example 59, 2-(2-benzylpyrrolidin-1-yl)-N-(cyclopropylmethyl)-6-morpholinopyrimidine-4-carboxamide] |
| 977 | CN(CCc1ccccc1Cl)c1nc(C(=O)NCC2CC2)cc(N2CCOCC2)n1 [Example 68, 2-((2-chlorophenethyl)(methyl)amino)-N-(cyclopropylmethyl)-6-morpholinopyrimidine-4-carboxamide] |
| 525 | O=C(NCC1CC1)c1cc(N2CCOCC2)nc(N(CCc2ccccc2)CCc2ccccc2)n1 [Example 62, N-(cyclopropylmethyl)-2-(diphenethylamino)-6-morpholinopyrimidine-4-carboxamide] |
| 2240 | CN(CCc1ccccc1)c1nc(C(=O)NCC2CC2)cc(-n2ccnc2)n1 [Example 23, N-(cyclopropylmethyl)-6-(1H-imidazol-1-yl)-2-(methyl(phenethyl)amino)pyrimidine-4-carboxamide] |
| 1200 | CC(=O)N1CCN(c2cc(C(=O)NCC3CC3)nc(N(C)CCc3ccccc3)n2)CC1 [Example 12, 6-(4-acetylpiperazin-1-yl)-N-(cyclopropylmethyl)-2-(methyl(phenethyl)amino)pyrimidine-4-carboxamide] |
| 2190 | O=C(NCC1CC1)c1cc(N2CCOCC2)nc(N2CCC(c3ccccc3)C2)n1 (stereo not shown) [Example 51, N-(cyclopropylmethyl)-6-morphol ino-2-(3-phenylpyrrolidin-1-yl)pyrimidine-4-carboxamide] |
| 5250 | CN(CCc1ccccc1)c1nc(Oc2cccnc2)cc(C(=O)NCC2CC2)n1 [Example 1, N-(cyclopropylmethyl)-2-(methyl(phenethyl)amino)-6-(pyridin-3-yloxy)pyrimidine-4-carboxamide] |
| 617 | C#CCNC(=O)c1cc(N2CC[C@H](O)C2)nc(N2CCN(C(=O)c3ccc(C4(C(F)(F)F)N=N4)cc3)CC2)n1 [Example 45, (S)-6-(3-hydroxypyrrolidin-1-yl)-N-(prop-2-yn-1-yl)-2-(4-(4-(3-(trifluoromethyl)-3H-diazirin-3-yl)benzoyl)piperazin-1-yl)pyrimidine-4-carboxamide] |
